# Tests used:
# [1] = tested on: Dendritic cells co-cultured with BCMA ADC treated NCI-H929 cells; test: IL-10 and IL-12p70 in co-culture supernatants (MSD kits); assay type: cell-based, human
# Protocol: Day 7 iDCs were co-cultured with J6M0 ADC enhanced antigen binding protein treated NCI-H929 cells at 1:1 ratio for 24 hours on 96 well plates. All cells were counted at the initiation of the co-culture and diluted with X-Vivo-15 media to a concentration of 7.5×10^5 cells/mL. 7.5×10^4 cells/well (100 μl) each of iDCS and pre-treated NCI-H929 cells were combined in each well on a 96 well plate. Co-cultured cells were incubated 37° C./5% CO2 for 24 hours. A flow cytometry panel consisting of CD1a, CD11c, CD40, CD80, CD83, CD86, HLA-DR, & CD14 was used to assess fresh, FcR blocked Dendritic Cell differentiation and maturation on the FACS Canto II. […]
# Data analysis was performed in Flow Jo v7.6.5 for the flow cytometry panel and used either CD11c+ or HLA-DR+ cell gating to distinguish the dendritic Cells from the tumor cells. […] Data for the secreted IL-10 and IL-12p70 from supernatants in the co-culture assays w analyzed in MSD Discovery Workbench v4.0.12.
# FIGS. 3A and 3B: IL-10 decreased in the supernatants from co-cultured Dendritic cells from two healthy human donors and BCMA ADC treated NCI-H929 Multiple Myeloma cells. IL-10 was measured in (a) untreated (no BCMA ADC) Dendritic cells alone and (b-f) Dendritic cells that were co-cultured with (b) untreated (no BCMA ADC), (c) IgG Control (10 μg/mL), (d) 0.1, (e) 1 and (f) 10 μg/mL BCMA ADC treated (48 hours) NCI-H929 cells. […]
# Dendritic cells = test: Co-culture of immature dendritic cells with BCMA ADC treated NCI-H929 cells, maturation markers by flow cytometry; assay type: cell-based, human
# Description: The process of immunogenic cell death can induce the production of danger molecules that lead to the activation of dendritic cells (see FIG. 1A-ICD is a special type of apoptosis often associated with the cellular release of ATP and HMGB1, and exposure of CRT at the cellular membrane. ICD induces an immune response through engagement of the antigen presentation process by dendritic cells (DCs)). […] Anti-BCMA-MMAF induced ATP release, HMGB1 release and CRT exposure only in NCI-H929, a BCMA positive MM cell line). To investigate the effect of NCI-H929 cell killing by BCMA ADC on the activation of dendritic cells, co-culture experiments were carried out with BCMA ADC treated NCI-H929 cells and immature dendritic cells (iDCs) differentiated from human monocytes in vitro with GM-CSF/IL-4 treatment. A number of dendritic cell maturation markers as well as IL-10 and IL-12p70, two major cytokines secreted by dendritic cells upon activation, were monitored in this process to assess the effect of BCMA ADC induced cell death on dendritic cell activation. Fresh, whole Human blood was obtained from three healthy donors from the Upper Providence Blood Donation Unit with syringes coated in liquid sodium heparin ([…] 10 IU/mL final concentration). Monocytes were isolated from fresh, whole human blood using the RosetteSep Monocyte Enrichment kit (Cat. #15068) and were assessed for expression of cell surface CD14 (BD Bioscience Cat. #562698) using flow cytometry. […] All cells were counted at the initiation of the co-culture and diluted with X-Vivo-15 media to a concentration of 7.5×10^5 cells/mL. […] Data for the secreted IL-10 and IL-12p70 from supernatants in the co-culture assays w analyzed in MSD Discovery Workbench v4.0.12. […] Marker expression was measured in (a) untreated (no BCMA ADC) Dendritic cells alone and (b-f) Dendritic cells that were co-cultured with (b) untreated (no BCMA ADC), (c) IgG Control (10 μg/mL), (d) 0.1, (e) 1 and (f) 10 μg/mL BCMA ADC treated (48 hours) NCI-H929 cells. […]
# [2] = three healthy donors, 24 hour co-culture, 0.1, 1, 10 μg/mL BCMA ADC
substance,measurement,setting,value
GSK2857916,IL-10 production,"[1]; 0.1, 1, 10 μg/mL BCMA ADC",significant inhibitory effect
same,IL-12p70,[1]; all conditions,below the detection limit
same,effect of killing of NCI-H929 cells on dendritic cells,Dendritic cells; 24 hour co-culture 1:1 with NCI-H929 cells treated 48 hours,stimulatory effect on dendritic cells
same,CD40 cell surface expression on CD11c+ Dendritic cells,Dendritic cells; [2],increased
same,CD83 cell surface expression on HLA-DR+ Dendritic cells,Dendritic cells; [2],increased

# Source: patent publication US20220096650A1 (Glaxosmithkline Intellectual Property Development Limited, priority 2019, published 2022)
